{"source": "patent US20020006908A1", "about": "“ANTICONVULSANT DERIVATIVES USEFUL IN TREATING SCHIZOPHRENIA” (priority 1998, published 2002)", "origin": "cited, not measured here", "key": {"[1]": {"tested_on": "animal model of kindled epilepsy"}, "[2]": {"tested_on": "rodent models of epilepsy", "details": "several rodent models of epilepsy"}, "human epilepsy": {"tested_on": "human epilepsy", "details": "adjunctive therapy or monotherapy, clinical trials of human epilepsy"}}}
{"smiles": "CC1(C)O[C@@H]2[C@@H](CO[C@@]3(COS(N)(=O)=O)OC(C)(C)O[C@@H]23)O1", "note": "[topiramate, 2,3:4,5-bis-O-(1-methylethylidene)-β-D-fructopyranose sulfamate]", "values": [{"measurement": "seizure block", "setting": "[1]", "value": "effectively block seizures"}, {"measurement": "effect on brain GABA activity", "setting": "brain GABA activity", "value": "enhancement of brain GABA activity"}, {"measurement": "effect on glutamate receptor activity", "setting": "glutamate receptor", "value": "reduced glutamate receptor activity"}, {"measurement": "seizure block", "setting": "[2]", "value": "effectively block seizures"}, {"measurement": "efficacy in treating simple and complex partial seizures and secondarily generalized seizures", "setting": "human epilepsy", "value": "effective"}]}
